Data reported in PMC6278313.
Like-named read-outs stand apart in the source and are kept apart here.

How the values were obtained:
COX-2 [1] = biological target: T1, COX-2 (Macaca mulatta, UniProt F7BWZ9); assay: COX-2 inhibition, monkey whole blood (Prostaglandin E2 EIA)
T1 sequence (F7BWZ9 18-604): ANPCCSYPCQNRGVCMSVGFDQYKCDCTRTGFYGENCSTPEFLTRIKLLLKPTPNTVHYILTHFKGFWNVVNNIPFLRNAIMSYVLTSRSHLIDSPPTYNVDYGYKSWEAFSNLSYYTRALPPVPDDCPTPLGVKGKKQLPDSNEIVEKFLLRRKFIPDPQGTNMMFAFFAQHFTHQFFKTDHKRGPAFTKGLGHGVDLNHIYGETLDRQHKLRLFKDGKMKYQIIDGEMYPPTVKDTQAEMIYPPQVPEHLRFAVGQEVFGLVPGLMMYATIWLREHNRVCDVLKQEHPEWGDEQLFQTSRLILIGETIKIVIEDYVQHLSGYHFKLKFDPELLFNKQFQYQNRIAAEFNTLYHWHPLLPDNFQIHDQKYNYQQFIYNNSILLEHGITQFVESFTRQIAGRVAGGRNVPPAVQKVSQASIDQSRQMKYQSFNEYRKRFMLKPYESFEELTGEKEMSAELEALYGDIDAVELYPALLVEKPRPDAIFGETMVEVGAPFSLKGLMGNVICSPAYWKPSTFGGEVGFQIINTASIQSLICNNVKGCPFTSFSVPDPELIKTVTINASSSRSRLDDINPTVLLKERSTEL

benzodiazepine (BzP) = assay: NIMH-PDSP radioligand binding screen, benzodiazepine site; parameters: species or system rat; details: 10 μM
human COX-2 = details: cited from earlier work
5-HT1B = 5-HT1B (Homo sapiens, UniProt P28222); assay: NIMH-PDSP radioligand binding screen, 5-HT1B
COX-1 [2] = biological target: T2, COX-1 (Macaca mulatta, UniProt F6S984); assay: COX-1 inhibition, monkey whole blood (Thromboxane B2 EIA)
T2 sequence (F6S984 25-599): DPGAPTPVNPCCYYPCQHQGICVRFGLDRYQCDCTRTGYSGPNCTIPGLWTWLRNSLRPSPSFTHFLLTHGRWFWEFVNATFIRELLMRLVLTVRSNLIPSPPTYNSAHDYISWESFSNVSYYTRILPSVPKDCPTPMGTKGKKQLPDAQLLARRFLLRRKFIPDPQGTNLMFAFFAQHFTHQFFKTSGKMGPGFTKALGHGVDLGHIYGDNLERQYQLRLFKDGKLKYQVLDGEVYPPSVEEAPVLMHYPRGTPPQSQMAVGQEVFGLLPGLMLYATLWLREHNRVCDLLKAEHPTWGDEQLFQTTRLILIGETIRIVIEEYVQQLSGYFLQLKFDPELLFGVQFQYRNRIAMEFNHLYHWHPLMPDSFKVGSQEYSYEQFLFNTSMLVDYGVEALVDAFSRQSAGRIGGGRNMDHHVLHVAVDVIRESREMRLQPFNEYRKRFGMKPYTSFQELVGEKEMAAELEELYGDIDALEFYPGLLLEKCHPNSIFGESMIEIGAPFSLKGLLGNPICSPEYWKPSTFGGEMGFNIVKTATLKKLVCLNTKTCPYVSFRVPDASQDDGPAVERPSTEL

[3] = biological target: DAT (dopamine transporter) (Homo sapiens, UniProt Q01959); assay: NIMH-PDSP radioligand binding screen, DAT; details: read-out: inhibition of radioligand binding at DAT
COX-1 [4] = biological target: T3, COX-1 (Homo sapiens, UniProt P23219); assay: COX-1 inhibition, human whole blood (Thromboxane B2 EIA)
[5] = test system: all tested receptors, transporters, and binding sites; assay: NIMH-PDSP radioligand binding screen, whole panel; details: 10 μM; except the sites named for 17 and 27
COX-1 [6] = biological target: T3, COX-1; parameters: endogenous in cells; host or cells: fresh human whole blood; details: footnote c; SE <15%; read-out: IC50 COX-1 Human WB (literature); cited from earlier work
COX-2 [7] = details: Chart 1; PET in vivo; ref literature cited in the text (18-30); cited from earlier work
COX-2 [8] = biological target: COX-2; parameters: method as in literature cited in the text (18-30); details: Chart 1; ref literature cited in the text (18-30); cited from earlier work
[9] = Chart 1; cited from earlier work

T3 sequence (P23219 24-599): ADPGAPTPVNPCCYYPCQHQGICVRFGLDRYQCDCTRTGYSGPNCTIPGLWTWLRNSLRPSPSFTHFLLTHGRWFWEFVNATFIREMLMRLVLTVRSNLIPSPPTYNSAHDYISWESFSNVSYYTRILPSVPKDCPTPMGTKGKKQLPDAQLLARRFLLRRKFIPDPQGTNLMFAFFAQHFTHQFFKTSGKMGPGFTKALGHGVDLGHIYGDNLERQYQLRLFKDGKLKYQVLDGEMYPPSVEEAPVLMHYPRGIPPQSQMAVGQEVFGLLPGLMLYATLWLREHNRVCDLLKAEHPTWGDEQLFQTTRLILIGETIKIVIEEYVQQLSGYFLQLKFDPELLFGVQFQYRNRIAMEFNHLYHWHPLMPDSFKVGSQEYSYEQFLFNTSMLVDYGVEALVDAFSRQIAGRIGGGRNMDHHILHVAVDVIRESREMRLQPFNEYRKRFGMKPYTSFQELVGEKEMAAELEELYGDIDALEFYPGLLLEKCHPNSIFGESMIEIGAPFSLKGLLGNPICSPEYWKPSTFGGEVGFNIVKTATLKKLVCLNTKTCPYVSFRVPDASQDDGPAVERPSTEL
Chain of 5-HT1B (P28222 whole entry): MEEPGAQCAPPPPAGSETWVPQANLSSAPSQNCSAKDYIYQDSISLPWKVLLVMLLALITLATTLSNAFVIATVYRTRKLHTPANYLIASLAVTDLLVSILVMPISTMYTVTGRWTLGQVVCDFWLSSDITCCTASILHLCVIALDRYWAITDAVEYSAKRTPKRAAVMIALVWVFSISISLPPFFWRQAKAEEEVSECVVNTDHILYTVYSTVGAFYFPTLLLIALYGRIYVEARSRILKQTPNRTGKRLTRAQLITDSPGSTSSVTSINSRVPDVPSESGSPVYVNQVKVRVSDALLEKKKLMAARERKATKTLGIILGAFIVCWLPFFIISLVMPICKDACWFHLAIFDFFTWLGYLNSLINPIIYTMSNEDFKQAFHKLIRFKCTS
Chain of DAT (dopamine transporter) (Q01959 whole entry, species assumed): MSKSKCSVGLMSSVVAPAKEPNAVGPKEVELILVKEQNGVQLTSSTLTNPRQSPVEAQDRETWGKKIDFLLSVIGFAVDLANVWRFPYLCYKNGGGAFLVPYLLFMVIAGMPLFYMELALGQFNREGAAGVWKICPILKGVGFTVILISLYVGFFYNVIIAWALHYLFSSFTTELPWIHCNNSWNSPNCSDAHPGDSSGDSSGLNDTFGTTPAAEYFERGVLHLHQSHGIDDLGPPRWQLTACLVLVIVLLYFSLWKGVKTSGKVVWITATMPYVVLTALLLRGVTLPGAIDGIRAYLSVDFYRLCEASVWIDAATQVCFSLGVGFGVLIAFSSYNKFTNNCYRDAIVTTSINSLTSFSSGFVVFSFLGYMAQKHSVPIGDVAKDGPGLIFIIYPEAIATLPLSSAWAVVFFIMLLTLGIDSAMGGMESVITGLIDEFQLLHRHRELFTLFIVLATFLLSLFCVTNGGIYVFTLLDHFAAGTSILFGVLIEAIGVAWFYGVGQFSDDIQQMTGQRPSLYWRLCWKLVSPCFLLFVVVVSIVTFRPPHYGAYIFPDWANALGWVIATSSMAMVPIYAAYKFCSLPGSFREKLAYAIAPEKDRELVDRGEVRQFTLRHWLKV

For `COc1cc(NCc2cccs2)nc(-c2ccc(S(C)(=O)=O)cc2)n1` [Compound 17, 6-Methoxy-2-(4-(methylsulfonyl)phenyl)-N-(thiophen-2-ylmethyl)pyrimidin-4-amine], the IC50 (COX-2 [1]) is listed as 2.58 ± 0.23 nM, the “inhibition of radioligand binding at benzodiazepine (BzP)” value (benzodiazepine (BzP)) is listed as 50.6% and the IC50 (human COX-2; Table 1, human whole blood COX-2, SEM <15%, read-out: HWB IC50) is listed as […]. For the same molecule, the IC50 (human COX-2; footnote c, SE <15%, read-out: IC50 COX-2 Human WB (literature) (converted)) was […], the inhibition at 10 µM (5-HT1B) was 50% and the IC50 (COX-1 [2]) was > 1000 nM. For the same molecule, the inhibition at 10 µM [3] was 53.7%, the melting point was 139 to 141 °C and the IC50 (COX-1 [4]) was > 1000 nM. For the same molecule, the “inhibition of radioligand binding at all tested receptors, transporters, and binding sites” value [5] was “less than 50%” and the IC50 (COX-1 [6]) was > 8800 nM.
For `CS(=O)(=O)c1ccc(-c2ccsc2-c2ccc([18F])cc2)cc1` [[^18F]9, [^18F]desbromo-DuP-697], the brain entry (COX-2 [7]) is given as “Brain penetrant”, the Ki (COX-2 [8]) is given as 250 nM and the logP [9] is given as 3.72.
For `CS(=O)(=O)c1ccc(-c2cc(C(F)(F)F)nc(NCc3ccc([18F])cc3)n2)cc1` [[^18F]10, [^18F]pyricoxib], the logD [9] is given as 3.37.
